Laboratory results: patent US9605064B2, “Methods and compositions for treatment of skin disorders” (AbbVie Biotechnology Ltd, priority 2006, dated 2017)

Test system: patients with moderate to severe chronic plaque psoriasis
Assay: PASI response, Phase II 12-week placebo-controlled trial with 48-week extension
Assay type: in vivo, human
Conditions: for PASI 50 / PASI 90 / PASI 100: after 60 weeks of 40 mg eow; for patients with PASI<50 response, qualified for dosage escalation to weekly: on or after Week 24; for Number of Patients Who Qualified for Dosage Escalation: placebo/adalimumab 40 mg eow (n = 18)
From the text: Efficacy outcome measures included PASI and PGA.
The two primary clinical outcome measures used in this study were the psoriasis area and severity index (PASI) and the physician's global assessment (PGA). PASI improvement of greater than or equal to 75% (used as an endpoint in psoriasis clinical trials) at week 12 was the primary efficacy outcome measure for this study. PASI is a composite index indicating severity for three main signs of psoriatic plaques (erythema, scaling, and thickness), weighted by the amount of coverage of these plaques in four main body areas, i.e., head, trunk, upper extremities, and lower extremities. PASI scores, which range from 0-72, with higher scores indicating greater severity, were assessed at screening, baseline, week 1, week 2, week 4, week 8, week 12/early termination, and follow-up.
Skin and safety outcomes were assessed up to Week 60.
Analytical methods included the following: • Analyses of clinical data were performed on a modified intention-to-treat population (ITT). […] Patients whose dosages were increased on or after Week 24 were considered non-responders; • Patients with similar percentage PASI improvement across treatment arms were pooled into four strata: PASI<50, PASI 50-74, PASI 75-99, and PASI 100; and • Week-60 distribution of DLQI scores, mean DLQI scores, and mean change in DLQI from Week 0-60 were calculated within each stratum.
Frequently used as an endpoint in psoriasis clinical trials, the PASI [25] was the primary efficacy outcome in this trial. PASI is a composite index indicating the severity of the three main signs of psoriatic plaques (i.e., erythema, scaling, and thickness) and is weighted by the amount of coverage of these plaques in the four main body areas (head, trunk, upper extremities, and lower extremities). PASI scores range from 0-72, with higher scores indicating greater disease severity. PASI was assessed at screening and baseline, at Weeks 1, 2, 4, 8, and 12/Early Termination, and at the final follow-up visit.
At week 12, placebo patients received an 80-mg loading dose, then 40 mg every other week. […] Patients who receive the rescue therapy were considered non-responders in this analysis.

[1] = Week 60, adalimumab 40 mg weekly, modified ITT, NRI
[2] = Week 60, placebo/adalimumab 40 mg eow (adalimumab from Week 12), modified ITT, NRI
[3] = baseline PASI ≧10 and DLQI >10, 40 mg eow, Week 12
[4] = baseline PASI ≧10 and DLQI >10, 40 mg eow, Week 24
[5] = baseline PASI ≧10 and DLQI >10, 40 mg eow, Week 36
[6] = baseline PASI ≧10 and DLQI >10, 40 mg eow, Week 60
[7] = baseline PASI ≧10 and DLQI >10, 40 mg weekly, Week 12
[8] = baseline PASI ≧10 and DLQI >10, 40 mg weekly, Week 24
[9] = baseline PASI ≧10 and DLQI >10, 40 mg weekly, Week 36
[10] = baseline PASI ≧10 and DLQI >10, 40 mg weekly, Week 60
[11] = baseline PASI ≧10 and DLQI >10, placebo/adalimumab 40 mg eow, Week 24
[12] = baseline PASI ≧10 and DLQI >10, placebo/adalimumab 40 mg eow, Week 36
[13] = baseline PASI ≧10 and DLQI >10, placebo/adalimumab 40 mg eow, Week 60
[14] = dosage escalation group (eow to 40 mg weekly, n = 30), Week 60
[15] = placebo/adalimumab 40 mg eow, Week 60, modified ITT, NRI
[16] = weekly group, week 60, observed analysis

Adalimumab: a human anti-TNF mAb, described in U.S. Pat. No. 6,090,382 as D2E7 (HUMIRA, Abbott Laboratories)
PASI 50 (% patients) [1]: 66% | Percentage of patients who achieved PASI 75 [1]: 64% | Percentage of patients who achieved PASI 90 [1]: 48% | Percentage of patients who achieved PASI 100 (Week 60, placebo/adalimumab 40 mg eow (adalimumab from Week 12), NRI): 19% | PASI 50 (% patients) [2]: 64% | Percentage of patients who achieved PASI 75 [2]: 45% | Percentage of patients who achieved PASI 90 [2]: 40% | PASI 75 response rate [3]: 69 % of Patients | PASI 90 response rate [3]: 39 % of Patients | PASI 75 response rate [4]: 77 % of Patients | PASI 90 response rate [4]: 54 % of Patients | PASI 75 response rate [5]: 73 % of Patients | PASI 90 response rate [5]: 58 % of Patients | PASI 75 response rate [6]: 65 % of Patients | PASI 90 response rate [6]: 42 % of Patients | PASI 75 response rate [7]: 74 % of Patients | PASI 90 response rate [7]: 61 % of Patients | PASI 75 response rate [8]: 78 % of Patients | PASI 90 response rate [8]: 70 % of Patients | PASI 75 response rate [9]: 74 % of Patients | PASI 90 response rate [9]: 65 % of Patients | PASI 75 response rate [10]: 65 % of Patients | PASI 90 response rate [10]: 48 % of Patients | PASI 75 response rate [11]: 50 % of Patients | PASI 90 response rate [11]: 28 % of Patients | PASI 75 response rate [12]: 50 % of Patients | PASI 90 response rate [12]: 50 % of Patients | PASI 75 response rate [13]: 44 % of Patients | PASI 90 response rate [13]: 39 % of Patients | PASI 50 response rate [14]: 40% | PASI 75 response rate [14]: ~20% | PASI 90 response rate [14]: 0% | PASI 75 response rate (dosage escalation group (eow to 40 mg weekly, n = 30), Week 60, listed as adalimumab): 17% | PASI 50 response (eow arm, Week 24): 73 | PASI 75 response rate (no prior use, 40 mg eow, Week 24): 65 % Patients | PASI 75 response rate (no prior use, 40 mg eow, Week 60): 48 % Patients | PASI 75 response rate (no prior use, 40 mg weekly, Week 24): 76 % Patients | PASI 75 response rate (no prior use, 40 mg weekly, Week 60): 64 % Patients | PASI 50 (no prior use): 65% | PASI 90 (no prior use): 30% | PASI 100 (no prior use): 17% | PASI 75 response rate (no prior use, placebo/adalimumab 40 mg eow, Week 24): 56 % Patients | PASI 75 response rate (no prior use, placebo/adalimumab 40 mg eow, Week 60): 40 % Patients | patients with PASI<50 response, qualified for dosage escalation to weekly (of the 45 patients in adalimumab eow group): 12 patients | patients with PASI<50 response, qualified for dosage escalation to weekly (of the 47 patients in placebo/adalimumab eow group): 18 patients | patients with PASI≧75 after dose escalation (original adalimumab 40 mg every other week arm (two out of nine), week 60): 22% | patients with PASI≧75 after dose escalation (original placebo/adalimumab 40 mg every other week arm (two out of thirteen), week 60): 15% | Number of Patients Who Qualified for Dosage Escalation (Week 24): 10 | Number of Patients Who Qualified for Dosage Escalation (Week 28): 2 | Number of Patients Who Qualified for Dosage Escalation (Week 32): 2 | Number of Patients Who Qualified for Dosage Escalation (Week 44): 1 | Number of Patients Who Qualified for Dosage Escalation (Week 52): 3 | Number of Patients Who Qualified for Dosage Escalation (Week 60): 0 | Overall PASI 75 response rate (placebo/adalimumab 40 mg eow, Week 24, modified ITT, NRI): 55 % of Patients | Overall PASI 75 response rate (placebo/adalimumab 40 mg eow, Week 36, modified ITT, NRI): 62 % of Patients | Overall PASI 75 response rate [15]: 45 % of Patients | PASI 50 response rate [15]: 57 % Patients | PASI 90 response rate [15]: 40 % Patients | PASI 100 response rate [15]: 19 % Patients | PASI 50 response (placebo/eow arm, Week 24): 77 | PASI 50 (prior biologic use): 63% | PASI 90 (prior biologic use): 38% | PASI 100 (prior biologic use): 13% | PASI 75 response rate (prior biological use, 40 mg eow, Week 24): 50 % Patients | PASI 75 response rate (prior biological use, 40 mg eow, Week 60): 63 % Patients | PASI 75 response rate (prior biological use, 40 mg weekly, Week 24): 67 % Patients | PASI 75 response rate (prior biological use, 40 mg weekly, Week 60): 78 % Patients | PASI 75 response rate (prior biological use, placebo/adalimumab 40 mg eow, Week 24): 63 % Patients | PASI 75 response rate (prior biological use, placebo/adalimumab 40 mg eow, Week 60): 63 % Patients | PASI 75 response rate (prior systemic use, 40 mg eow, Week 24): 68 % Patients | PASI 75 response rate (prior systemic use, 40 mg eow, Week 60): 68 % Patients | PASI 75 response rate (prior systemic use, 40 mg weekly, Week 24): 73 % Patients | PASI 75 response rate (prior systemic use, 40 mg weekly, Week 60): 64 % Patients | PASI 50 (prior systemic use): 68% | PASI 90 (prior systemic use): 37% | PASI 100 (prior systemic use): 11% | PASI 75 response rate (prior systemic use, placebo/adalimumab 40 mg eow, Week 24): 47 % Patients | PASI 75 response rate (prior systemic use, placebo/adalimumab 40 mg eow, Week 60): 41 % Patients | PASI 50 response (weekly arm, Week 24): 80 | PASI 75-99 response rate [16]: 38 | PASI 100 response rate [16]: 26
